Assay in all cases: Inhibition of odorant activation of heteromeric OR in Xenopus oocytes
In test [1] the test system is Mcar\Orco+Mcar\Or5. The test is classed as cell-based, Megacyllene caryae. To be noted: activated by 150µM 2-phenylethanol; 10µM tryptamine or 100µM tyramine. As for the experimental part:
(§1) Follicle cells were removed by treatment with collagenase B (Boehringer Mannheim) for 2 hours at room temperature. Capped cRNA encoding each OR subunit was generated using mMessage mMachine kits (Ambion). For heteromeric ORs, 25 ng of cRNA encoding each OR subunit was injected into Stage V-VI Xenopus oocytes. For expression of Orco homomers, 50 ng of cRNA was injected. Oocytes were incubated at 18°C in Barth's saline (in mM: 88 NaCl, 1 KCl, 2.4 NaHCO 3, 0.3 CaNO 3, 0.41 CaCl 2, 0.82 MgSO 4, 15 HEPES, pH 7.6, and 150µg/ml ceftazidime) for 2–5 days prior to electrophysiological recording.
(§2) Odorant and Orco ligand induced currents were recorded under two-electrode voltage clamp, using an automated parallel electrophysiology system (OpusExpress 6000A, Molecular Devices). Oocytes were perfused with ND96 (in mM: 96 NaCl, 2 KCl, 1 CaCl 2, 1 MgCl 2, 5 HEPES, pH 7.5). Orco ligands were prepared as 50 or 100 mM stock solutions in DMSO and then diluted into ND96 on the day of the experiment. Odorants were prepared as 100 mM stock solutions in DMSO and then diluted into ND96. Unless otherwise noted, applications were for 60 sec at a flow rate of 1.0 ml/min, with extensive washing in ND96 at 4.6 ml/min between applications. Micropipettes were filled with 3 M KCl and had resistances of 0.2–2.0 MΩ. The holding potential was -70 mV. […]

The target of test [2] is T1, Agam\Orco+Agam\Or48 (Anopheles gambiae, UniProt Q7QCC7).
T1 sequence (Q7QCC7 1-478): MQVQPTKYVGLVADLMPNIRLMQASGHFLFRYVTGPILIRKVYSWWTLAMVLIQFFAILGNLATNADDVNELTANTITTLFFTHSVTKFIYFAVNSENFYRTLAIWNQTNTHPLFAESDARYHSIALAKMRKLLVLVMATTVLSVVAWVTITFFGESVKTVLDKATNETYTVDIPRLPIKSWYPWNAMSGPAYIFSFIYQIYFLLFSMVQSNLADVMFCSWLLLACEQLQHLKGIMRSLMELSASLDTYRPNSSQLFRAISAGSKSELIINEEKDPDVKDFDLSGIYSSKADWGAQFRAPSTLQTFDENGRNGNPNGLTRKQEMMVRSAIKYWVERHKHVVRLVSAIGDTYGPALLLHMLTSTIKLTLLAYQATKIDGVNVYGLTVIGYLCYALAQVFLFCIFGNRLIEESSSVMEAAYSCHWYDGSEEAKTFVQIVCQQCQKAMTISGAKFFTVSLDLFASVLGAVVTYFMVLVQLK
Type of test: cell-based. The settings on record: activated by 3µM 2-nonanone; 10µM tryptamine or 100µM tyramine. On the procedure: as §1, §2

Test [3] has as its system Agam\Orco+Agam\Or31. Type of test: cell-based, Anopheles gambiae. To be noted: activated by 70µM geranyl acetate; 10µM tryptamine or 100µM tyramine. On the procedure: as §1
(§3) Odorant and Orco ligand induced currents were recorded under two-electrode voltage clamp, using an automated parallel electrophysiology system (OpusExpress 6000A, Molecular Devices). Oocytes were perfused with ND96 (in mM: 96 NaCl, 2 KCl, 1 CaCl 2, 1 MgCl 2, 5 HEPES, pH 7.5). Orco ligands were prepared as 50 or 100 mM stock solutions in DMSO and then diluted into ND96 on the day of the experiment. Odorants were prepared as 100 mM stock solutions in DMSO and then diluted into ND96. Unless otherwise noted, applications were for 60 sec at a flow rate of 1.0 ml/min, with extensive washing in ND96 at 4.6 ml/min between applications. Micropipettes were filled with 3 M KCl and had resistances of 0.2–2.0 MΩ. The holding potential was -70 mV. Current responses, filtered (4-pole, Bessel, low pass) at 20 Hz (-3 db) and sampled at 100 Hz, were captured and stored using OpusXpress 1.1 software (Molecular Devices).
(§4) To measure inhibition of odorant activation of heteromeric ORs ( Figures 4B, 4C, Figure 5B and Figure 6), oocytes were exposed to a 30 sec application of odorant followed by a 10 min wash. Oocytes were then exposed to a 90 sec application of tryptamine or tyramine, immediately followed by a 30 sec co-application of tryptamine or tyramine and odorant. The current response in the presence of antagonist candidate was compared to the preceding response to odorant alone and expressed as a percentage. […] For this reason, we then re-normalized antagonism data to the value obtained when the assay was run in the absence of antagonist candidate (sham). In the “sham” assay, oocytes were exposed to a 30 sec application of odorant followed by a 10 min wash and then exposed to a 90 sec application of ND96 (no antagonist candidate), immediately followed by a 30 sec application of odorant. The second odorant response was compared to the first response and expressed as a percentage. In Figure 4B, 4C, Figure 5B and Figure 6, the sham value for 100nM eugenol was 57 ± 3% (mean ± SEM, n = 3). In Figure 5B, the sham value for 10nM eugenol was 93 ± 4% (n = 4). In Figure 4B and C, the sham value for 1µM Z11-14:OAc was 82 ± 6% (n = 6) and the sham value for 150µM 2-phenylethanol was 92 ± 2% (n = 3). In Figure 6, the sham value for 3µM L-fenchone was 83 ± 1% (n = 3), the sham value for 40µM acetophenone was 92 ± 1% (n = 3), the sham value for 70µM geranyl acetate was 97 ± 1% (n = 3), the sham value for 10µM 6-methyl-5-hepten-2-one was 94 ± 2% (n = 3) and the sham value for 3µM 2-nonanone was 81 ± 1% (n = 3).

In test [4] the test system is Agam\Orco+Agam\Or27. The test is classed as cell-based, Anopheles gambiae. The settings on record: activated by 3µM L-fenchone; 10µM tryptamine or 100µM tyramine. As for the experimental part:
as §1, §3, §4

For test [5], the system named is Agam\Orco+Agam\Or39. Type of test: cell-based, Anopheles gambiae. To be noted: activated by 10µM 6-methyl-5-hepten-2-one; 10µM tryptamine or 100µM tyramine. As for the experimental part: as §1, §3, §4
In test [6] the test system is Agam\Orco+Agam\Or28. Type of test: cell-based, Anopheles gambiae. To be noted: activated by 40µM acetophenone; 10µM tryptamine or 100µM tyramine. As for the experimental part:
as §1, §3, §4

As to `NCCc1c[nH]c2ccccc12` [tryptamine], the “inhibition of odorant activation of the OR” value in test [1] was “substantial inhibition of each receptor”; in test [2] it was “able to inhibit odorant activation of the receptor”; in test [3], “able to inhibit odorant activation of the receptor”; in test [4], “able to inhibit odorant activation of the receptor”; in test [5], “able to inhibit odorant activation of the receptor”; in test [6], “able to inhibit odorant activation of the receptor”.

Consider `NCCc1ccc(O)cc1` [tyramine], for which the “inhibition of odorant activation of the OR” value in test [1] was “able to reduce odorant activation of these ORs, but was less effective than tryptamine”; in test [2], “able to inhibit odorant activation of each of these receptors, but was less effective than tryptamine”; in test [3] it was “able to inhibit odorant activation of each of these receptors, but was less effective than tryptamine”; in test [4], “able to inhibit odorant activation of each of these receptors, but was less effective than tryptamine”; in test [5], “able to inhibit odorant activation of each of these receptors, but was less effective than tryptamine”; in test [6], “able to inhibit odorant activation of each of these receptors, but was less effective than tryptamine”.

For the origin of these results see paper PMC4097363, “Trace amines inhibit insect odorant receptor function through antagonism of the co-receptor subunit” (F1000Research, 2014).
